Source: patent publication US6624190B2, “2-acylamino-2-deoxy-glucono-1,5-lactones, a method for the production thereof, compositions containing them, and uses thereof” (Universite Pierre et Marie Curie (Paris VI), priority 1998, dated 2003)

Columns and labels:
[1] = tested on: bovine kidney β—N-acetyl glucosaminidase (EC 3.2.1.52); assay: N-acetyl glucosaminidase (NaGase) enzymatic inhibition, pNphNAG substrate; assay type: biochemical
Procedure: The enzyme used as a reference was bovine kidney β—N-acetyl glucosaminidase (EC 3.2.1.52) (Sigma A-2415) and its substrate was p-nitrophenyl 2-acetamido-2-deoxy glucopyranoside (Acros 22941-1000) (pNphNAG). The commercially available enzyme, in the form of a suspension in a 3.2 M solution of (NH4)2SO4, was centrifuged at 13000 rpm for 5 minutes and the residue was taken up in 1 ml of water. The solution obtained was the mother enzymatic solution.
Protocol: 100 μl of the enzymatic solution diluted to 1/10 was mixed with 100 μl of pH 4.2 citrate buffer and 300 μl of inhibitor solution (or water for the reference) and incubated at 37° C. for 5 minutes in a spectrophotometer cell. After adding 500 μl of substrate (5 mM or 2.5 mM), incubation was continued for 8 minutes at 37° C. and the optical density at 400 nm was monitored. The quantity of p-nitrophenol liberated by the enzymatic reaction was determined by correlating the optical density to a calibration curve (OD at 400 nm=f([p-nitrophenol])). The N-acetyl glucosaminidase activity unit was defined as the quantity of enzyme required to liberate one μmole of p-nitrophenol per minute under the conditions cited above.
I50 is defined as the concentration of compound capable of inhibiting 50% of the enzymatic activity under the assay conditions.
We colorimetrically monitored the quantities of p-nitrophenol liberated (in 10^−3 μmol/mn) by the action of N-acetyl glucosaminidase (NaGase) on pNphNAG (2.5 mM) in the presence of increasing quantities of (i) (concentration C in mM).
In order to determine the inhibition constant K1, we used Dixon's graphical method, which consisted of plotting the inverse of the initial velocity (1 Iv0) of the enzymatic reaction against the inhibitor concentration (C, in μM) for two different substrate concentrations. The abscissa of the intersection point of the two straight lines corresponds to —K1.

[2] = Determination of critical micellar concentration by surface tension (Wilhelmy plate method); assay type: physicochemical
Procedure: The surface tension γ of a liquid in contact with air was measured at 25° C. by the Wilhelmy plate method (Prolabo TENSIMAT n3 tensometer). This consisted of plunging a vertical platinum strip (19.54 mm long) into a liquid then gradually withdrawing it, monitoring the tension exerted on the strip by the liquid film. The maximum value recorded before complete detachment of the strip represented the surface tension, expressed in mN/m. After calibrating the apparatus (calibration at two points: the zero value with the strip in air and a value of 50.2 mN/m with the strip tested with a weight of 200 mg), the surface tensions of solutions containing increasing quantities of the surfactant were recorded (measurements repeated three times). The critical micellar concentration was obtained from conventional graphs of γ=f(logC) where C represents the concentration in mol/l.
The change in surface tension γ (in mN/m) of an aqueous solution (volume=10 ml) was monitored as a function of the quantities of dissolved product (C, in Mol/l) (A=C(O)C7H15 and R2=CH3). The critical micellar concentration corresponds to the concentration above which the surface tension becomes a constant.

[3] = molecular target: T1, chicken lysozyme (Gallus gallus, UniProt P00698); assay: Lysozyme inhibition, Micrococcus lysodeikticus walls substrate; assay type: biochemical
T1 construct: purchased Sigma L-6876
Procedure: The enzyme studied was 0.5 g/l chicken lysozyme (Sigma, L-6876) in a 100 mM, pH 6.5 phosphate buffer and the substrate was constituted by 17 mg/100 ml of Micrococcus lysodeikticus walls in suspension in the same buffer.
Protocol: 100 μl of enzymatic solution was diluted with 400 μl of inhibitor solution. This was left at ambient temperature for 5 or 10 minutes. 40 μl of mixture was added to 3 ml of the substrate suspension in a spectrophotometer cell. The optical density was recorded at 450 nm every 10 seconds for 3 minutes.

[4] = comparison values; cited from earlier work

T1 sequence (P00698 19-147): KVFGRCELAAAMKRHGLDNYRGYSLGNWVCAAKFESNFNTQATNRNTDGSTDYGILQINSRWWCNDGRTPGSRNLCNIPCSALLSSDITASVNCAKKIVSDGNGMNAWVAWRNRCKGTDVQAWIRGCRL

SMILES	nature of inhibition ([1]; Dixon diagram)	Ki ([1]; Dixon's graphical method, substrate 2.5 mM and 5 mM, read-out: inhibition constant K1)	IC50 ([1]; pNphNAG 2.5 mM, pH 4.2 citrate buffer, 37° C., read-out: I50)	critical micellar concentration (CMC) ([2]; aqueous solution, 25° C.)	surface tension of water reduced to ([2]; reduction from 71 mN/m for concentrations of 0 to 25 mM (8.6 g/l))	effect on lysozyme activity ([3]; 0.1 mg/ml lysozyme, compound 1.8 mM)	affinity for lysozyme ([3]; summary)	critical micellar concentration (CMC) of commercially available glycosylated surfactants [4]
CCCCCCCC(=O)OC[C@H]1OC(=O)[C@H](NC(C)=O)[C@@H](O)[C@@H]1O [(i), 2-acetamido-2-deoxy-6—O-octanoyl-glucono-1,5-lactone]	competitive	~3 µM	~7 µM	25 mM	30 mN/m	No difference was detected	no affinity	
CCCCCCCNC(=O)OC[C@H]1O[C@H](OC)[C@H](O)[C@@H](O)[C@@H]1O [HECAMEG]								22 mM
CCCCCCCCO[C@@H]1O[C@H](CO)[C@@H](O)[C@H](O)[C@H]1O [octyl glucoside, n-octyl glucoside]								18 mM
